“Also recorded” adds a separate entry of the source.
Columns and labels:
healthy women = test: 3-menstrual cycle study in healthy women (ovulation, endometrial thickness); assay type: in vivo, human; conditions: 150 mg QD and 200 mg BID, vs pretreatment
[1] = Pharmacokinetics in hepatic impairment; assay type: in vivo, human
Excerpt: Elagolix exposures (Cmax and AUC) are similar between women with normal hepatic function and women with mild hepatic impairment. Elagolix exposures in women with moderate and severe hepatic impairment are approximately 3-fold and 7-fold, respectively, of exposures from women with normal hepatic function.
Compared to women with normal liver function, those with moderate hepatic impairment had approximately 3-fold higher elagolix exposures and those with severe hepatic impairment had approximately 7-fold higher elagolix exposures. Because of these increased exposures and risk for bone loss: Elagolix 150 mg once daily is recommended for women with moderate hepatic impairment (Child-Pugh B) with the duration of treatment limited to 6 months. Use of elagolix 200 mg twice daily is not recommended for women with moderate hepatic impairment. Elagolix is contraindicated in women with severe hepatic impairment (Child-Pugh C).

[2] = Compound A solubility experiment in water at 37° C. (gel formation); assay type: physicochemical
Method: The dotted line in FIG. 2 is the theoretical concentration based on the weights of the solids added and the volume of water. […] Deviation of the concentrations from the theoretical line is due to the volume expansion upon dissolution of large amount of solutes. Beyond that, the concentrations deviate from the theoretical line, but the solution is still clear and no visible gelling was observed. When more than 500 mg of Compound A solid was added, visible gelling was observed, therefore, concentrations were not determined.

[3] = test system: CYP3A, CYP2D6, CYP2C8, uridine glucuronosyltransferases (UGTs); test: Metabolism pathways of elagolix; assay type: in vitro ADME, human
[4] = test system: premenopausal women with endometriosis with associated pain; test: Blinded extension studies EM-III and EM-IV (12 months); assay type: in vivo, human; conditions: patients maintained on their dose
Excerpt: Each placebo-controlled study assessed the reduction in endometriosis-associated pain over 6 months of treatment. More than 75 percent of women who completed Study EM-I and EM-II enrolled in the extension studies for an additional 6 months treatment period. Subjects were followed for up to 12 months post-treatment. In study EM-IV, efficacy was maintained when elagolix was taken with and without food.

[5] = test system: women treated in Studies EM-I and EM-II; test: Adverse reactions in Studies EM-I and EM-II; assay type: in vivo, human; conditions: for Percentage of Patients with Amenorrhoea / Percentage of Patients with Anxiety / Percentage of Patients with Arthralgia / Percentage of Patients with Headache / Percentage of Patients with Hot Flush / Percentage of Patients with Insomnia / Percentage of Patients with Nasopharyngitis / Percentage of Patients with Nausea / Percentage of Patients with Sinusitis / Percentage of Patients with Upper Respiratory Tract Infection: Studies EM-I and EM-II; for discontinuations due to hot flush / discontinuations due to nausea / patients who discontinued therapy due to adverse reactions: EM-I and EM-II
Excerpt: The population age range was 18-49 years old. Women who completed six months of treatment and met eligibility criteria continued treatment in two blinded six-month extension studies, for a total treatment duration of up to 12 months.

estradiol = test: Estradiol suppression in the Phase 3 studies in women with endometriosis; assay type: in vivo, human; conditions: 150 mg QD, partial suppression
[6] = Lactation study in rats (elagolix in pup plasma); assay type: in vivo, rat
Method: Pregnant rats were given diet containing elagolix throughout the gestation and lactation periods to achieve a daily elagolix dose of 400 mg/kg. During nursing the dams and litters were divided into restricted feeding and non-restricted groups to determine whether elagolix was secreted in the mother's milk. […] In pups of the non-restricted feeding group, elagolix plasma concentrations were measurable and approximately 1% of the mother's plasma concentrations.

COc1cccc(-c2c(C)n(Cc3c(F)cccc3C(F)(F)F)c(=O)n(C[C@H](NCCCC(=O)O)c3ccccc3)c2=O)c1F [Compound A, 4-((R)-2-[5-(2-fluoro-3-methoxy-phenyl)-3-(2-fluoro-6-trifluoromethyl-benzyl)-4-methyl-2,6-dioxo-3,6-dihydro-2H-pyrimidin-1-yl]-1-phenyl-ethylamino)-butyric acid]
mean endometrial thickness (transvaginal ultrasound) (healthy women): dose dependent decrease in the mean endometrial thickness
exposures (Cmax and AUC) vs normal hepatic function ([1]; mild hepatic impairment): similar
exposures vs normal hepatic function ([1]; moderate hepatic impairment): approximately 3 fold
exposures vs normal hepatic function ([1]; severe hepatic impairment, listed as Elagolix): ~7 fold
exposures vs normal hepatic function ([1]; severe hepatic impairment, listed as elagolix): approximately 7 fold
Final pH ([2]; 12.2 mg added to 1.5 mL water): 9.66
Measured Concentration ([2]; 12.2 mg added to 1.5 mL water): 7.45 mg/mL
Observation ([2]; 12.2 mg added to 1.5 mL water): Clear solution
Final pH ([2]; 28.7 mg added to 1.5 mL water): 9.96
Measured Concentration ([2]; 28.7 mg added to 1.5 mL water): 17.3 mg/mL
Observation ([2]; 28.7 mg added to 1.5 mL water): Clear solution
Final pH ([2]; 49.8 mg added to 1.5 mL water): 10.10
Measured Concentration ([2]; 49.8 mg added to 1.5 mL water): 28.0 mg/mL
Observation ([2]; 49.8 mg added to 1.5 mL water): Clear solution
Final pH ([2]; 100.4 mg added to 1.5 mL water): 10.16
Measured Concentration ([2]; 100.4 mg added to 1.5 mL water): 60.8 mg/mL
Observation ([2]; 100.4 mg added to 1.5 mL water): Clear solution
Final pH ([2]; 202.5 mg added to 1.5 mL water): 10.18
Measured Concentration ([2]; 202.5 mg added to 1.5 mL water): 111 mg/mL
Observation ([2]; 202.5 mg added to 1.5 mL water): Clear solution
Final pH ([2]; 295.6 mg added to 1.5 mL water): 10.20
Measured Concentration ([2]; 295.6 mg added to 1.5 mL water): 149 mg/mL
Observation ([2]; 295.6 mg added to 1.5 mL water): Clear solution
Final pH ([2]; 503.2 mg added to 1.5 mL water): 10.17
Measured Concentration ([2]; 503.2 mg added to 1.5 mL water): 170 mg/mL
Observation ([2]; 503.2 mg added to 1.5 mL water): Clear solution
Observation ([2]; 700.9 mg added to 1.5 mL water): Gel formation
Observation ([2]; 990.0 mg added to 1.5 mL water): Gel formation
Metabolism (major pathway) [3]: CYP3A (major)
Metabolism, minor pathways ([3]; listed as Elagolix): Minor pathways include: CYP2D6,; also recorded: CYP2C8, and uridine; also recorded: glucuronosyltransferases (UGTs)
durability of improvement in dysmenorrhea, NMPP and dyspareunia [4]: demonstrated for a total of 12 months
Percentage of Patients with Amenorrhoea ([5]; 150 mg QD, N = 475): 4%
Percentage of Patients with Anxiety ([5]; 150 mg QD, N = 475): 3%
Percentage of Patients with Arthralgia ([5]; 150 mg QD, N = 475): 3%
Percentage of Patients with Headache ([5]; 150 mg QD, N = 475): 17%
Percentage of Patients with Hot Flush ([5]; 150 mg QD, N = 475): 23%
Percentage of Patients with Insomnia ([5]; 150 mg QD, N = 475): 6%
Percentage of Patients with Nasopharyngitis ([5]; 150 mg QD, N = 475): 6%
Percentage of Patients with Nausea ([5]; 150 mg QD, N = 475): 11%
Percentage of Patients with Sinusitis ([5]; 150 mg QD, N = 475): 5%
Percentage of Patients with Upper Respiratory Tract Infection ([5]; 150 mg QD, N = 475): 6%
Percentage of Patients with Amenorrhoea ([5]; 200 mg BID, N = 477): 7%
Percentage of Patients with Anxiety ([5]; 200 mg BID, N = 477): 5%
Percentage of Patients with Arthralgia ([5]; 200 mg BID, N = 477): 5%
Percentage of Patients with Headache ([5]; 200 mg BID, N = 477): 20%
Percentage of Patients with Hot Flush ([5]; 200 mg BID, N = 477): 45%
Percentage of Patients with Insomnia ([5]; 200 mg BID, N = 477): 9%
Percentage of Patients with Nasopharyngitis ([5]; 200 mg BID, N = 477): 6%
Percentage of Patients with Nausea ([5]; 200 mg BID, N = 477): 16%
Percentage of Patients with Sinusitis ([5]; 200 mg BID, N = 477): 6%
Percentage of Patients with Upper Respiratory Tract Infection ([5]; 200 mg BID, N = 477): 4%
discontinuations due to hot flush ([5]; 150 mg QD): 0.8%
discontinuations due to nausea ([5]; 150 mg QD): 0.8%
patients who discontinued therapy due to adverse reactions ([5]; 150 mg QD): 5.5%
discontinuations due to hot flush ([5]; 200 mg BID): 2.5%
discontinuations due to nausea ([5]; 200 mg BID): 1.5%
patients who discontinued therapy due to adverse reactions ([5]; 200 mg BID): 9.6%
Events of hot flushes ([5]; majority assessed as mild to moderate): dose-dependent
suppression of estradiol to (estradiol): approximately 50 pg/mL
elagolix plasma concentrations in pups, % of the mother's plasma concentrations ([6]; dams 400 mg/kg daily in diet, non-restricted feeding group): approximately 1%
elagolix plasma concentrations in pups ([6]; dams 400 mg/kg daily in diet, restricted feeding litters, post natal day 10 and 20): not measurable
secretion in milk ([6]; listed as elagolix): secreted minimally via milk; also recorded: minimally secreted in milk
